Test results from patent US20230087342A1, “AZEPANE DERIVATIVE” (Nippon Chemiphar Co., Ltd., priority 2019, published 2023).

Assays:
[1] = Metabolic stability test; assay type: in vitro ADME; settings: human liver microsomes, 0 to 30 minutes; a hydrochloride was used
Procedure: To determine the unchanged product-residual ratio of the test compound in the reaction sample, human liver microsomes and the test compound were reacted for a predetermined time (0 to 30 minutes). The unchanged product-residual ratio at a reaction time of 0 hours was considered 100%, the residual ratio after incubation was log-linear plotted with respect to the time, a regression line (y=100 e^−kt, k=slope of the line: elimination rate constant) was determined, and the metabolic clearance CLint (mL/min/kg) was calculated using the following formula.
CLint*=k (−min)×45 (mg MS protein/g liver)×21 (g liver/kg)/MS protein (mg MS protein/mL)
*: Yamazaki S.; Skaptason J.; Romero D, Vekich S.; Jones HM.; Tan W.; Wilner KD.; Koudriakova T. Drug Metab. Dispos. 2011 March; 39 (3): 383-393.

[2] = test system: ICR male mice; experiment: Mouse acetic acid writhing test; assay type: in vivo; settings: hydrochloride; for ED50: Mus musculus, read-out: ED50 value (writhing suppressing effect)
Procedure: Mouse Acetic Acid Writhing Test
The analgesic effect of the test compound was evaluated by an acetic acid writhing test. For the experiment, ICR male mice were used and acclimated to a plastic open field for 30 minutes before starting the test. After acclimation, the mice were administered with the test compound (30 to 3000 μg/kg) or water for injection subcutaneously or orally, and once returned to the open field. Thirty minutes after the administration of the test compound, a 0.6% aqueous acetic acid solution was additionally administered to the same mice by intraperitoneal administration. From 10 minutes after administration of the 0.6% aqueous acetic acid solution, the number of writhing reactions (writhing reactions in which the mouse stretches while pressing the abdominal cavity against the floor) induced in the mice was measured for 10 minutes, and the number of writhing reactions was compared with that of a control group (water for injection-administrated group) to evaluate the analgesic effect of the test compound.

[3] = target: T1, human κ opioid receptors (Homo sapiens, UniProt P41145); experiment: Opioid receptor function test (Lance Ultra cAMP kit, agonist activity); assay type: cell-based; settings: CHO cells expressing human κ opioid receptors, 10 μM forskolin, 30 minutes
T1 construct: host or cells: CHO cells
How it was run: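 CHO cells expressing human κ opioid receptor incubated 30 min with test compound (10^−14 to 10^−7 M) and 10 μM forskolin in HSS/5 mM HEPES pH 7.4 with 0.5 mM IBMX and 0.1% SA. cAMP measured by TR-FRET (Lance Ultra) 1 h after detection reagent addition.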

T1 sequence (P41145 whole entry): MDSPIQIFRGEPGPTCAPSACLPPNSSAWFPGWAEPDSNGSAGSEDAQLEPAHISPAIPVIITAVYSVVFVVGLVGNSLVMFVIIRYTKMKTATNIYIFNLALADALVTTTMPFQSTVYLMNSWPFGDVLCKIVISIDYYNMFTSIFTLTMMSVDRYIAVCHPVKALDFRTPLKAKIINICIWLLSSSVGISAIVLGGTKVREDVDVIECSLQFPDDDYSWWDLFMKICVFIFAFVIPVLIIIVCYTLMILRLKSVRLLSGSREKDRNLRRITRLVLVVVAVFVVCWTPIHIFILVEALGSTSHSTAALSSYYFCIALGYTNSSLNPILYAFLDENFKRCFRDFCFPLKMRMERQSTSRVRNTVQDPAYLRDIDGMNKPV

Compound | CLint scaled [1] [mL/min/kg] | EC50 [3] [pM] | also measured
Cc1cnn(CCN2CC[C@]34CCN(CC5CC5)[C@H](Cc5ccc(O)cc53)[C@]4(O)CC2)c1 [Example 50, (5aS,6R,11bS)-14-(cyclopropylmethyl)-3-(2-(4-methyl-1H-pyrazol-1-yl)ethyl)-2,3,4,5,6,7-hexahydro-6,11b-(epiminoethano)naphtho[1,2-d]azepine-5a,10(1H)-diol] | 8.7 | 27 | ED50 ([2]; Oral): 0.21 mg/kg; Writhing suppression rate ([2]; Oral, dose 300 (μg/kg)): + (40 ≤ % <60: +); Writhing suppression rate ([2]; Oral, dose 1000 (μg/kg)): +++ (80 ≤ %: +++)
O=C(Cc1ccccn1)N1CC[C@]23CCN(CC4CC4)[C@H](Cc4cc(Cl)c(O)cc42)[C@]3(O)CC1 [Example 308, 1-((5aS,6R,11bR)-9-chloro-14-(cyclopropylmethyl)-5a,10-dihydroxy-1,2,5,5a,6,7-hexahydro-6,11b-(epiminoethano)naphtho[1,2-d]azepin-3(4H)-yl)-2-(pyridin-2-yl)ethan-1-one] | 9 | 600 | ED50 ([2]; Oral): 1.42 mg/kg; Writhing suppression rate ([2]; Oral, dose 1000 (μg/kg)): + (40 ≤ % <60: +); Writhing suppression rate ([2]; Oral, dose 3000 (μg/kg)): ++ (60 ≤ % <80: ++)
Cc1cc2c(cc1O)[C@@]13CCN(C(=O)Cc4ccccn4)CC[C@@]1(O)[C@@H](C2)N(CC1CC1)CC3 [Example 291, 1-((5aS,6R,11bR)-14-(cyclopropylmethyl)-5a,10-dihydroxy-9-methyl-1,2,5,5a,6,7-hexahydro-6,11b-(epiminoethano)naphtho[1,2-d]azepin-3(4H)-yl)-2-(pyridin-2-yl)ethan-1-one] | 8 | 550 | 
Cc1cnn(CCN2CC[C@]34CCN(CC5CC5)[C@H](Cc5cc(Cl)c(O)cc53)[C@]4(O)CC2)c1 [Example 326, (5aS,6R,11bS)-9-chloro-14-(cyclopropylmethyl)-3-(2-(4-methyl-1H-pyrazol-1-yl)ethyl)-2,3,4,5,6,7-hexahydro-6,11b-(epiminoethano)naphtho[1,2-d]azepine-5a,10(1H)-diol] | 10.9 | 180 | 
Oc1ccc2c(c1)[C@@]13CCN(CCc4ccc5ccccc5n4)CC[C@@]1(O)[C@@H](C2)N(CC1CC1)CC3 [Example 124, (5aS,6R,11bS)-14-(cyclopropylmethyl)-3-(2-(quinolin-2-yl)ethyl)-2,3,4,5,6,7-hexahydro-6,11b-(epiminoethano)naphtho[1,2-d]azepine-5a,10(1H)-diol] | 14.3 | 40 | 
Cc1cnn(C[C@@H](C)N2CC[C@]34CCN(CC5CC5)[C@H](Cc5ccc(O)cc53)[C@]4(O)CC2)c1 [Example 229, (5aS,6R,11bS)-14-(cyclopropylmethyl)-3-((R)-1-(4-methyl-1H-pyrazol-1-yl)propan-2-yl)-2,3,4,5,6,7-hexahydro-6,11b-(epiminoethano)naphtho[1,2-d]azepine-5a,10(1H)-diol] | 5.1 | 25 | 
COc1c(O)ccc2c1[C@@]13CCN(CCn4cc(C)cn4)CC[C@@]1(O)[C@@H](C2)N(CC1CC1)CC3 [Example 332, (5aS,6R,11bS)-14-(cyclopropylmethyl)-11-methoxy-3-(2-(4-methyl-1H-pyrazol-1-yl)ethyl)-2,3,4,5,6,7-hexahydro-6,11b-(epiminoethano)naphtho[1,2-d]azepine-5a,10(1H)-diol] | 9.2 | 640 | 
Oc1ccc2c(c1)[C@@]13CCN(CCn4cc(Br)cn4)CC[C@@]1(O)[C@@H](C2)N(CC1CC1)CC3 [Example 61, (5aS,6R,11bS)-3-(2-(4-bromo-1H-pyrazol-1-yl)ethyl)-14-(cyclopropylmethyl)-2,3,4,5,6,7-hexahydro-6,11b-(epiminoethano)naphtho[1,2-d]azepine-5a,10(1H)-diol] | 26 | 28 | 
Oc1ccc2c(c1)[C@@]13CCN(CCc4nccs4)CC[C@@]1(O)[C@@H](C2)N(CC1CC1)CC3 [Example 31, (5aS,6R,11bS)-14-(cyclopropylmethyl)-3-(2-(thiazol-2-yl)ethyl)-2,3,4,5,6,7-hexahydro-6,11b-(epiminoethano)naphtho[1,2-d]azepine-5a,10(1H)-diol] | 7.5 | 110 | 
Cc1cc(CCN2CC[C@]34CCN(CC5CC5)[C@H](Cc5ccc(O)cc53)[C@]4(O)CC2)ns1 [Example 177, (5aS,6R,11bS)-14-(cyclopropylmethyl)-3-(2-(5-methylisothiazol-3-yl)ethyl)-2,3,4,5,6,7-hexahydro-6,11b-(epiminoethano)naphtho[1,2-d]azepine-5a,10(1H)-diol] | 9.5 | 19 | 
Cc1cnn(CCN2CC[C@]34CCN(CC5CC5)[C@H](Cc5cc(Br)c(O)cc53)[C@]4(O)CC2)c1 [Example 263, (5aS,6R,11bS)-9-bromo-14-(cyclopropylmethyl)-3-(2-(4-methyl-1H-pyrazol-1-yl)ethyl)-2,3,4,5,6,7-hexahydro-6,11b-(epiminoethano)naphtho[1,2-d]azepine-5a,10(1H)-diol] | 18 | 890 | 
Cc1cnn(CCN2CC[C@]34CCN(CC5CC5)[C@H](Cc5ccc(C(N)=O)cc53)[C@]4(O)CC2)c1 [Example 244, (5aS,6R,11bS)-14-(cyclopropylmethyl)-5a-hydroxy-3-(2-(4-methyl-1H-pyrazol-1-yl)ethyl)-1,2,3,4,5,5a,6,7-octahydro-6,11b-(epiminoethano)naphtho[1,2-d]azepine-10-carboxamide] | 7.7 | 470 | 
Cc1cnn(CCN2CC[C@]34CCN(CC5CC5)[C@H](Cc5cc(C)c(O)cc53)[C@]4(O)CC2)c1 [Example 262, (5aS,6R,11bS)-14-(cyclopropylmethyl)-9-methyl-3-(2-(4-methyl-1H-pyrazol-1-yl)ethyl)-2,3,4,5,6,7-hexahydro-6,11b-(epiminoethano)naphtho[1,2-d]azepine-5a,10(1H)-diol] | 5.8 | 85 | 
CC1C[C@@]2(O)[C@H]3Cc4ccc(O)cc4[C@]2(CCN1C(=O)Cc1ccccn1)CCN3CC1CC1 (stereo partly drawn) [Example 281, 1-((5aS,6R,11bR)-14-(cyclopropylmethyl)-5a,10-dihydroxy-4-methyl-1,2,5,5a,6,7-hexahydro-6,11b-(epiminoethano)naphtho[1,2-d]azepin-3(4H)-yl)-2-(pyridin-2-yl)ethan-1-one] | 13.7 | 140 | 
O=C(Cc1ncccn1)N1CCC[C@@]2(O)[C@H]3Cc4ccc(O)cc4[C@@]2(CCN3CC2CC2)C1 [Example 139, 1-((5aS,6R,11bS)-14-(cyclopropylmethyl)-5a,10-dihydroxy-3,4,5,5a,6,7-hexahydro-6,11b-(epiminoethano)naphtho[1,2-c]azepin-2(1H)-yl)-2-(pyrimidin-2-yl)ethan-1-one] | 29.7 |  | 
Oc1ccc2c(c1)[C@@]13CCN(CCc4cscn4)CC[C@@]1(O)[C@@H](C2)N(CC1CC1)CC3 [Example 34, (5aS,6R,11bS)-14-(cyclopropylmethyl)-3-(2-(thiazol-4-yl)ethyl)-2,3,4,5,6,7-hexahydro-6,11b-(epiminoethano)naphtho[1,2-d]azepine-5a,10(1H)-diol] |  | 40 | Writhing suppression rate ([2]; Subcutaneous, dose 30 (μg/kg)): ++ (60 ≤ % <80: ++)
NC(=O)c1ccc2c(c1O)[C@@]13CCN(C(=O)Cc4ccccn4)CC[C@@]1(O)[C@@H](C2)N(CC1CC1)CC3 [Example 353, (5aS,6R,11bR)-14-(cyclopropylmethyl)-5a,11-dihydroxy-3-(2-(pyridin-2-yl)acetyl)-1,2,3,4,5,5a,6,7-octahydro-6,11b-(epiminoethano)naphtho[1,2-d]azepine-10-carboxamide] | 7.9 |  | 
Oc1ccc2c(c1)[C@@]13CCN(CCc4ccccc4)CC[C@@]1(O)[C@@H](C2)N(CC1CC1)CC3 [Example 90, (5aS,6R,11bS)-14-(cyclopropylmethyl)-3-phenethyl-2,3,4,5,6,7-hexahydro-6,11b-(epiminoethano)naphtho[1,2-d]azepine-5a,10(1H)-diol] | 11.6 | 870 | 
NC(=O)c1ccc2c(c1)[C@@]13CCN(C(=O)Cn4cc(C(F)(F)F)cn4)CC[C@@]1(O)[C@@H](C2)N(CC1CC1)CC3 [Example 266, (5aS,6R,11bR)-14-(cyclopropylmethyl)-5a-hydroxy-3-(2-(4-(trifluoromethyl)-1H-pyrazol-1-yl)acetyl)-1,2,3,4,5,5a,6,7-octahydro-6,11b-(epiminoethano)naphtho[1,2-d]azepine-10-carboxamide] | 4.4 | 74 | 
